Four compounds from PubChem BioAssay AID1259407 (Chemical Carcinogenesis Research Information System (CCRIS), 2018) can be followed below.

This series relates to CCRIS mutagenicity, Ames/micronucleus/aberration tests. The series is described as follows: CCRIS mutagenicity studies.
Setting [1] is: Test System: AMES SALMONELLA TYPHIMURIUM, Strain/Indicator: TA98, Metabolic Activation: NONE, Method: STANDARD PLATE.
[2] abbreviates: Test System: AMES SALMONELLA TYPHIMURIUM, Strain/Indicator: TA100, Metabolic Activation: NONE, Method: STANDARD PLATE.
The mark [3] stands for this setting: Test System: AMES SALMONELLA TYPHIMURIUM, Strain/Indicator: TA1535, Metabolic Activation: NONE, Method: STANDARD PLATE.
Where [4] appears, read: Test System: AMES SALMONELLA TYPHIMURIUM, Strain/Indicator: TA1538, Metabolic Activation: NONE, Method: STANDARD PLATE.

Active and inactive are the calls of the source. No rule for the calls is given here.

For `C/C=C1/C[C@@H](C)[C@](O)(CO)C(=O)OCC2=CC[N+]3([O-])CC[C@@H](OC1=O)[C@@H]23` (some centres undefined), the mutagenic call (Test System: AMES SALMONELLA TYPHIMURIUM, Strain/Indicator: TA100, Metabolic Activation: RAT, LIVER, S-9, SODIUM PHENOBARBITAL AND BETA-NAPHTHOFLAVONE, Method: PREINCUBATION) was “inactive; negative”.

On to `Cc1c(N)nc([C@H](CC(N)=O)NC[C@H](N)C(N)=O)nc1C(=O)N[C@H](C(=O)N[C@H](C)[C@@H](O)[C@H](C)C(=O)N[C@H](C(=O)NCCc1nc(-c2nc(C(=O)NCCCN(C)CCCN=C(N)CC3CCC(Cl)CC3)cs2)cs1)[C@@H](C)O)[C@@H](O[C@@H]1O[C@@H](CO)[C@@H](O)[C@H](O)[C@@H]1O[C@H]1O[C@H](CO)[C@@H](O)[C@H](OC(N)=O)[C@@H]1O)c1cnc[nH]1` (some centres undefined), for which the mutagenic call is “active; positive” (Test System: AMES SALMONELLA TYPHIMURIUM, Strain/Indicator: TA94, Metabolic Activation: NONE, Method: PREINCUBATION) and “active; positive” (Test System: AMES SALMONELLA TYPHIMURIUM, Strain/Indicator: TA102, Metabolic Activation: NONE, Method: PREINCUBATION).

With `CCO[Si](C)(OCC)OCC`, the mutagenic call by setting is: under setting [1], “inactive; negative”; (Test System: AMES SALMONELLA TYPHIMURIUM, Strain/Indicator: TA98, Metabolic Activation: RAT LIVER S-9, AROCLOR 1254, Method: STANDARD PLATE) “inactive; negative”; under setting [2], “inactive; negative”; (Test System: AMES SALMONELLA TYPHIMURIUM, Strain/Indicator: TA100, Metabolic Activation: RAT LIVER S-9, AROCLOR 1254, Method: STANDARD PLATE) “inactive; negative”; under setting [3], “inactive; negative”; (Test System: AMES SALMONELLA TYPHIMURIUM, Strain/Indicator: TA1535, Metabolic Activation: RAT LIVER S-9, AROCLOR 1254, Method: STANDARD PLATE) “inactive; negative”. Also, the mutagenic call was “inactive; negative” (Test System: AMES SALMONELLA TYPHIMURIUM, Strain/Indicator: TA1537, Metabolic Activation: NONE, Method: STANDARD PLATE); “inactive; negative” (Test System: AMES SALMONELLA TYPHIMURIUM, Strain/Indicator: TA1537, Metabolic Activation: RAT LIVER S-9, AROCLOR 1254, Method: STANDARD PLATE); “inactive; negative” under setting [4]; “inactive; negative” (Test System: AMES SALMONELLA TYPHIMURIUM, Strain/Indicator: TA1538, Metabolic Activation: RAT LIVER S-9, AROCLOR 1254, Method: STANDARD PLATE); “inactive; negative” (Test System: E. COLI, Strain/Indicator: P3078 POLA, Metabolic Activation: NONE, Method: SPOT TEST); “inactive; negative” (Test System: E. COLI, Strain/Indicator: P3078 POLA, Metabolic Activation: RAT LIVER S-9, AROCLOR 1254, Method: SPOT TEST). The mutagenic call reads like this: (Test System: E. COLI, Strain/Indicator: W3110, Metabolic Activation: NONE, Method: SPOT TEST) “inactive; negative”; (Test System: E. COLI, Strain/Indicator: W3110, Metabolic Activation: RAT LIVER S-9, AROCLOR 1254, Method: SPOT TEST) “inactive; negative”; (Test System: MOUSE LYMPHOMA, Strain/Indicator: L5178Y (TK+/TK-), Metabolic Activation: NONE, Method: SUSPENSION/PLATE) “inactive; negative”; (Test System: MOUSE LYMPHOMA, Strain/Indicator: L5178Y (TK+/TK-), Metabolic Activation: RAT, LIVER, S-9, Method: SUSPENSION/PLATE) “inactive; negative”.

As to `CC(C)C[C@H](NC(=O)COc1cc(Cl)c(Cl)cc1Cl)C(=O)O`, the mutagenic call by setting is: (Test System: AMES SALMONELLA TYPHIMURIUM, Strain/Indicator: TA97, Metabolic Activation: NONE, Method: STANDARD PLATE) “inactive; negative”; (Test System: AMES SALMONELLA TYPHIMURIUM, Strain/Indicator: TA97, Metabolic Activation: RAT, LIVER, S-9, AROCLOR 1254, Method: STANDARD PLATE) “inactive; negative”; under setting [1], “inactive; negative”; (Test System: AMES SALMONELLA TYPHIMURIUM, Strain/Indicator: TA98, Metabolic Activation: RAT, LIVER, S-9, AROCLOR 1254, Method: STANDARD PLATE) “inactive; negative”; under setting [2], “inactive; negative”; (Test System: AMES SALMONELLA TYPHIMURIUM, Strain/Indicator: TA100, Metabolic Activation: RAT, LIVER, S-9, AROCLOR 1254, Method: STANDARD PLATE) “inactive; negative”. The mutagenic call is “inactive; negative” under setting [3]; “inactive; negative” (Test System: AMES SALMONELLA TYPHIMURIUM, Strain/Indicator: TA1535, Metabolic Activation: RAT, LIVER, S-9, AROCLOR 1254, Method: STANDARD PLATE); “inactive; negative” under setting [4]; “inactive; negative” (Test System: AMES SALMONELLA TYPHIMURIUM, Strain/Indicator: TA1538, Metabolic Activation: RAT, LIVER, S-9, AROCLOR 1254, Method: STANDARD PLATE).
